{"source": "patent US11225462B2", "about": "“Crystal forms of oxypyridine amide derivative and preparation method therefor” (JIANGSU HENGRUI MEDICINE CO., LTD., priority 2018, dated 2022)", "type_in_all_cases": "physicochemical", "key": {"[1]": {"experiment": "DVS (dynamic vapor sorption) hygroscopicity characterization", "experimental": "DVS refers to dynamic vapor sorption and is determined using SMS DVS Advantage at 25° C., with the humidity change of 50%-95%-0%-95%-50% and the stepping of 10% (5% for the last step) (the specific humidity range is determined in accordance with the corresponding plot, and the methods listed herein are those most commonly used), and the standard for determination is as follow: dm/dt is not more than 0.02%, and Tmax is not more than 360 min."}, "[2]": {"experiment": "Influencing factor experiments (light, high temperature, high humidity, 30 days)", "experimental": "Crystal forms A, B, D and F of the compound of formula (I) were spread and left open to the air, and under conditions of high temperature (40° C. and 60° C.), light (4500 Lux), high humidity (RH 75% and RH 90%), the stability thereof were investigated for a period of 30 days."}, "[3]": {"experiment": "Long-term and accelerated stability experiments (3 months)", "experimental": "The long-term (25° C., 60% RH) and accelerated (40° C., 75% RH) stability of crystal form A and crystal form F of the compound of formula (I) were investigated for 3 months."}}, "data": [{"compound": "CCC(=O)c1ccc(Cl)cc1-c1cc(=O)n([C@@H](CCOC(C)(C)C)C(=O)Nc2ccc(C(=O)O)cc2)cc1OC", "note": "[Crystal form A, (S)-4-(4-(tert-butoxy)-2-(4-(5-chloro-2-propionylphenyl)-5-methoxy-2-oxopyridin-1(2H)-yl)butanamido)benzoic acid]", "values": [{"measurement": "mass increase under normal conditions", "setting": "[1]; 25° C. and 60% RH", "value": "about 1.156%"}, {"measurement": "hygroscopicity according to guidelines for drug hygroscopicity test in China Pharmacopoeia (2015 edition)", "setting": "[1]; 25° C., 10% RH to 80% RH", "value": "slightly hygroscopic (less than 2% but not less than 0.2%)"}, {"measurement": "mass increase as the humidity increases", "setting": "[1]; 25° C., 10% RH to 80% RH", "value": "about 1.781%"}, {"measurement": "mass increase under accelerated test conditions", "setting": "[1]; 70% RH", "value": "about 1.479%"}, {"measurement": "mass increase under extreme conditions", "setting": "[1]; 90% RH", "value": "about 2.199%"}, {"measurement": "crystal form before and after DVS detection (XRPD comparison)", "setting": "[1]; after DVS detection", "value": "unchanged"}, {"measurement": "desorption process and adsorption process of the sample", "setting": "[1]; humidity change from 0% to 95%", "value": "basically coincide"}, {"measurement": "% Purity", "setting": "[2]; 40° C., 5 days", "value": 98.74, "unit": "%"}, {"measurement": "Color and trait", "setting": "[2]; 40° C., 5 days", "value": "Yellow solid"}, {"measurement": "% Purity", "setting": "[2]; 40° C., 10 days", "value": 98.70, "unit": "%"}, {"measurement": "Color and trait", "setting": "[2]; 40° C., 10 days", "value": "Yellow solid"}, {"measurement": "% Purity", "setting": "[2]; 40° C., 30 days", "value": 98.48, "unit": "%"}, {"measurement": "Color and trait", "setting": "[2]; 40° C., 30 days", "value": "Yellow solid"}, {"measurement": "% Purity", "setting": "[2]; 60° C., 5 days", "value": 98.73, "unit": "%"}, {"measurement": "Color and trait", "setting": "[2]; 60° C., 5 days", "value": "Yellow solid"}, {"measurement": "% Purity", "setting": "[2]; 60° C., 10 days", "value": 98.68, "unit": "%"}, {"measurement": "Color and trait", "setting": "[2]; 60° C., 10 days", "value": "Yellow solid"}, {"measurement": "% Purity", "setting": "[2]; 60° C., 30 days", "value": 98.50, "unit": "%"}, {"measurement": "Color and trait", "setting": "[2]; 60° C., 30 days", "value": "Yellow solid"}, {"measurement": "% Purity", "setting": "[2]; 4500 Lux, 5 days", "value": 98.74, "unit": "%"}, {"measurement": "Color and trait", "setting": "[2]; 4500 Lux, 5 days", "value": "Yellow solid"}, {"measurement": "% Purity", "setting": "[2]; 4500 Lux, 10 days", "value": 98.74, "unit": "%"}, {"measurement": "Color and trait", "setting": "[2]; 4500 Lux, 10 days", "value": "Yellow solid"}, {"measurement": "% Purity", "setting": "[2]; 4500 Lux, 30 days", "value": 98.75, "unit": "%"}, {"measurement": "Color and trait", "setting": "[2]; 4500 Lux, 30 days", "value": "Yellow solid"}, {"measurement": "% Purity", "setting": "[2]; Initial condition, day 0", "value": 98.76, "unit": "%"}, {"measurement": "Color and trait", "setting": "[2]; Initial condition, day 0", "value": "Yellow solid"}, {"measurement": "% Purity", "setting": "[2]; RH 75%, 5 days", "value": 98.76, "unit": "%"}, {"measurement": "% Weight gain", "setting": "[2]; RH 75%, 5 days", "value": 1.15, "unit": "%"}, {"measurement": "Color and trait", "setting": "[2]; RH 75%, 5 days", "value": "Yellow solid"}, {"measurement": "% Purity", "setting": "[2]; RH 75%, 10 days", "value": 98.76, "unit": "%"}, {"measurement": "% Weight gain", "setting": "[2]; RH 75%, 10 days", "value": 3.30, "unit": "%"}, {"measurement": "Color and trait", "setting": "[2]; RH 75%, 10 days", "value": "Yellow solid"}, {"measurement": "% Purity", "setting": "[2]; RH 75%, 30 days", "value": 98.76, "unit": "%"}, {"measurement": "% Weight gain", "setting": "[2]; RH 75%, 30 days", "value": 5.85, "unit": "%"}, {"measurement": "Color and trait", "setting": "[2]; RH 75%, 30 days", "value": "Yellow solid"}, {"measurement": "% Purity", "setting": "[2]; RH 90%, 5 days", "value": 98.75, "unit": "%"}, {"measurement": "% Weight gain", "setting": "[2]; RH 90%, 5 days", "value": 3.18, "unit": "%"}, {"measurement": "Color and trait", "setting": "[2]; RH 90%, 5 days", "value": "Yellow solid"}, {"measurement": "% Purity", "setting": "[2]; RH 90%, 10 days", "value": 98.75, "unit": "%"}, {"measurement": "% Weight gain", "setting": "[2]; RH 90%, 10 days", "value": 8.14, "unit": "%"}, {"measurement": "Color and trait", "setting": "[2]; RH 90%, 10 days", "value": "Yellow solid"}, {"measurement": "% Purity", "setting": "[2]; RH 90%, 30 days", "value": 98.76, "unit": "%"}, {"measurement": "% Weight gain", "setting": "[2]; RH 90%, 30 days", "value": 11.37, "unit": "%"}, {"measurement": "Color and trait", "setting": "[2]; RH 90%, 30 days", "value": "Yellow solid"}, {"measurement": "physical and chemical stability (conclusion)", "setting": "[2]; light, 40° C., 60° C., 75% RH or 90% RH for 30 days", "value": "good physical and chemical stability"}, {"measurement": "% Purity 1 month", "setting": "[3]; 25° C., 60% RH", "value": 98.80, "unit": "%"}, {"measurement": "% Purity 2 months", "setting": "[3]; 25° C., 60% RH", "value": 98.77, "unit": "%"}, {"measurement": "% Purity 3 months", "setting": "[3]; 25° C., 60% RH", "value": 98.76, "unit": "%"}, {"measurement": "% Purity Initial condition", "setting": "[3]; 25° C., 60% RH", "value": 98.79, "unit": "%"}, {"measurement": "% Purity 1 month", "setting": "[3]; 40° C., 75% RH", "value": 98.79, "unit": "%"}, {"measurement": "% Purity 2 months", "setting": "[3]; 40° C., 75% RH", "value": 98.75, "unit": "%"}, {"measurement": "% Purity 3 months", "setting": "[3]; 40° C., 75% RH", "value": 98.74, "unit": "%"}, {"measurement": "% Purity Initial condition", "setting": "[3]; 40° C., 75% RH", "value": 98.79, "unit": "%"}, {"measurement": "physical and chemical stability (conclusion)", "setting": "[3]; long-term (25° C., 60% RH) and accelerated (40° C., 75% RH) conditions for 3 months", "value": "good physical and chemical stability"}]}]}
